In one series the test system is Hif-1 alpha. Description: Inhibition of Hif-1 alpha leading to CTGF in vitro. The source says: Fructose-1,6-bisphosphate (FBP) is an intermediate in glycolysis which, if provided to cells could allow them to bypass two ATP-requiring steps for energy production. […] M6P is known to isomerize to fructose-6-phosphate (F6P), an intermediate of glycolysis in the step prior to FBP (FIG. 1). Therefore, one might hypothesize that treatment with M6P may decrease production of CTGF by decreasing the need for substrate-level phosphorylation, which would be vital in hypoxic conditions. In this regard, the present inventors have shown that […] produces the inhibition of Hif-1 alpha leading to CTGF in vitro. Alternatively, latent TGF-β is activated through its binding with the M6P/IGFII receptor (Ghahary, Tredget et al. 1999). Competitive inhibition of the activation of TGF-β through treatment with M6P is considered another method by which M6P may inhibit fibrosis. It is thought that M6P may have more potential for reducing fibrosis than FBP because its mechanism of action is not dependent upon a hypoxic environment.

In another series the test system is CTGF. Conditions: cells under hypoxic conditions; Haung, Adah et al. 2009; cited from earlier work.
Another series has as its system MRC-5 fibroblast cells. Description: In vitro fibroblast proliferation/viability with M6P and TGF-β1. The series is classed as cell-based. The text has this: FIGS. 8A-B show images illustrating that M6P competes with TGFβ. (A) Use of MRC-5 fibroblast cells in an in vitro assessment of concentration effects of TGFβ and M6P as well as effectiveness of M6P to block the proliferative effects of TGFβ. (B) Schematic showing potential mechanism of M6P and TGFβ competing for the same M6P receptor that leads to increase gene regulation.

Series [1] has as its system human dermal fibroblast and keratinocyte. Conditions: Clavel, Barragan-Montero et al. 2005; cited from earlier work.
Another series concerns human tenocytes. Conditions: in vitro; Wong, Tang et al. 2003; cited from earlier work.
A further series deals with digital flexor tendons. Conditions: three weeks after operation; vs operated controls; cited from earlier work.

Turning to `O=C(CO)[C@@H](O)[C@H](O)[C@H](O)COP(=O)(O)O` [F6P, fructose 6 phosphate], the “inhibition of Hif-1 alpha leading to CTGF” value in the series with Hif-1 alpha is “inhibition”.

`O=C(COP(=O)(O)O)[C@@H](O)[C@H](O)[C@H](O)COP(=O)(O)O` [FBP, Fructose-1,6-bisphosphate]: in the series on CTGF, the “production of CTGF” value was “decreases production of CTGF to near control conditions”.

For the molecule `O=C[C@@H](O)[C@@H](O)[C@H](O)[C@H](O)COP(=O)(O)O` [M6P, mannose 6 phosphate], in the series with MRC-5 fibroblast cells (0.05 μM M6P), the “cell proliferation of fibroblast cells” value is reported as “enhance cell proliferation” and the “toxic effect on fibroblast cells” value is “without evidence of a toxic effect”. In the series on MRC-5 fibroblast cells (M6P added along with TGF-β1), the TGF-β1-induced proliferation result is “increased proliferation was eliminated”. The inhibition of proliferation entry in series [1] was “potent inhibitor”.

Turning to `C[C@@H]1C[C@H]2[C@@H]3CCC4=CC(=O)C=C[C@]4(C)[C@@]3(F)[C@@H](O)C[C@]2(C)[C@@]1(O)C(=O)CO` [dexamethasone], the “tenocyte viability, mitotic activity and collagen production” value in the series with human tenocytes is reported as “negative effects”.

For the molecule “TGF-β1: TGF-β1 growth factor added to fibroblast cells [reference compound]”, in the series on MRC-5 fibroblast cells (TGF-β1 added at 8 pM), the cell proliferation entry was “enhanced cell proliferation”. For the same molecule, the “toxicity to the cells” value in the series on MRC-5 fibroblast cells (TGF-β1 at the higher doses) is “toxic”.

B1: PDGF-BB: platelet-derived growth factor-BB, controlled release from fibrin-based delivery system (protein, UniProt P01127 82-190, looked up)
Platelet-derived growth …: SLGSLTIAEPAMIAECKTRTEVFEISRRLIDRTNANFLVWPPCVEVQRCSGCCNNRNVQCRPTQVQLRPVQVRKIEIVRKKPIFKKATVTLEDHLACKCETVAAARPVT
B1: the “range of motion (ROM)” value in the series on digital flexor tendons is listed as “significantly greater ROM”.
